Assays:
[1] = test system: C. trachomatis-specific CD4^+ murine T cells; assay: IFN-γ ELISA of C. trachomatis-specific CD4+ murine T cells stimulated with peptide-pulsed macrophages; assay type: cell-based, mouse; conditions: CT144 peptides (CD4+ Ag); for IFN-γ Produced −fold: fold-increase of IFN-γ production compared to untreated T-lymphocytes (footnote); for IFN-γ Produced ng: mean (± standard deviation) of duplicate samples
From the text: (§1) A library of cells or viruses containing polynucleotides encoding C. trachomatis polypeptides, polypeptide fragments, or fusion proteins may be screened to determine which of the polypeptides, polypeptide fragments, or fusion proteins encoded by the polynucleotides are immunogenic. This may be accomplished by contacting each member of the library with a second cell (e.g., a macrophage or antigen presenting cell) capable of endocytosing the cell of the C. trachomatis library, and displaying portions of the expressed polypeptide of the library on the surface of the second cell (see, e.g., U.S. Pat. No. 6,008,415). The second cell is then contacted with a C. trachomatis-specific T cell (e.g., a C. trachomatis-specific CD4^+ or CD8^+ T cell) from an organism previously infected with C. trachomatis. The second cell may also be fixed (e.g., using paraformaldehyde) prior to contacting with a C. trachomatis-specific T cell. A C. trachomatis-specific T cell capable of binding a presented portion of the C. trachomatis protein, will result in secretion of cytokines. Cytokine secretion (e.g., secretion of IFN-γ, IL-2, or TNF) may be assayed for as known in the art, for example, using an ELISA assay.
(§2) In particular, murine H2^b bone marrow-derived macrophages (BMMs) were seeded at a density of 1×10^5 cells/well in 96-well plates. Fourteen to sixteen hours later, an aliquot of a frozen C. trachomatis library was thawed. The media was aspirated from the BMMs and replaced with a library aliquot and 60 μL of fresh RP-10 media. After 1 hour at 37° C., the BMMs were washed with PBS, 100 μL of RP-10 media added, and the cells incubated an additional hour at 37° C. The BMMs were then fixed with 1% paraformaldehyde for 15 minutes and washed extensively with PBS. […] T cells (either C. trachomatis-specific CD4^+ or CD8^+ murine T cells; 1×10^5) were added to each well in 200 μL of RP-10 media. Plates were incubated for 18-24 hours at 37° C. and the amount of IFN-γ in the supernatant of each well determined through the use of an IFN-γ ELISA assay (Endogen).
(§3) Another way to identify an antigenic peptide is to pulse the polypeptide, polypeptide fragment, or fusion protein onto macrophages and screen for their ability to activate C. trachomatis-specific CD4^+ or CD8^+ murine T cells (as described above). Peptides used in such assays can be synthesized using methods known in the art. A polypeptide, polypeptide fragment, or fusion protein that is capable of activating the C. trachomatis-specific CD4^+ or CD8^+ murine T cells is deemed immunogenic.
Activated CD4^+ murine T cells for use in the identification of immunogenic C. trachomatis polypeptides, polypeptide fragments, and fusion proteins may be obtained using methods known in the art. Splenocytes from mice were isolated 21 days after infection with C. trachomatis serovar L2 and cultured with irradiated (2,000 rad) bone marrow-derived dendritic cells, UV-inactivated C. trachomatis serovar L2, and naïve syngeneic splenocytes in RP-10 (RPMI medium 1640 supplemented with 10% fetal calf serum, L-glutamine, HEPES, 50 μM 2-β-mercaptoethanol, 50 units/ml penicillin, and 50 μg/ml streptomycin) with a-methyl mannoside and 5% supernatant from Con A-stimulated rat spleen cells. CD8^+ T cells were depleted from the culture by using Dynabeads Mouse CD8 (Invitrogen, Carlsbad, Calif.). The CD4^+ T cells were restimulated every 7 days with C. trachomatis-pulsed bone marrow-derived dendritic cells. Once a C. trachomatis-specific CD4^+ cell line was established, a CD4^+ T cell clone was isolated by limiting dilution.

[2] = test system: C. trachomatis-specific CD8^+ murine T cells; assay: IFN-γ ELISA of C. trachomatis-specific CD8+ murine T cells stimulated with peptide-pulsed macrophages; assay type: cell-based, mouse; conditions: CT242 and CT812 peptides (CD8+ Ag); for IFN-γ Produced −fold: fold-increase of IFN-γ production compared to untreated T-lymphocytes (footnote); for IFN-γ Produced ng: mean (± standard deviation) of duplicate samples
From the text: as §1, §2, §3
Pools of activated CD8^+ murine T cells for use in the identification of immunogenic C. trachomatis polypeptides, polypeptide fragments, and fusion proteins may be obtained using methods known in the art. Typically, in screening for antigens to pathogenic organisms, CD8^+ T cells are prepared from a mammal previously infected with the pathogenic organism. This preparation contains CD8^+ T cells specific for antigens from the pathogen.
C. trachomatis-specific CD8^+ T cells were harvested from mice as follows. A C57BL/6 mouse was injected intraperitoneally with 10^7 infection-forming units of C. trachomatis. Fourteen days later the mouse was euthanized and the spleen was harvested. The spleen was mashed through a 70 μm screen to create a single cell solution of splenocytes. The CD8^+ T cells were isolated from the splenocytes using anti-CD8 antibodies bound to MACS™ magnetic beads and separation protocols standard in the art (see, for e.g., MACS™ technology available from Miltenyi Biotec Inc., Auburn, Calif.). The isolated CD8^+ cells were added to macrophages of the same haplotype (H2^b), which were infected with C. trachomatis 18 hours prior in a 24-well dish. Irradiated splenocytes from a naïve mouse (C57BL/6) were added as feeder cells in media containing IL-2. The cells were incubated for 10 days during which the C. trachomatis-specific CD8^+ T cells were stimulated by the infected macrophages and replicated. […]

KSDISFGGRVNLADNTVNYS (listed as Chlamydia trachomatis) [amino acids 77-96 of the CT144 polypeptide]
IFN-γ Produced −fold [1]: 40 fold
IFN-γ Produced ng [1]: 1.6 (±0.4) ng

AQGKLIVTNPKSDISFGGRV (listed as Chlamydia trachomatis) [amino acids 67-86 of the CT144 polypeptide]
IFN-γ Produced −fold [1]: 925 fold
IFN-γ Produced ng [1]: 37.0 (±1.8) ng

SNLKRMQKI [CT242 peptide tested with CD8+ T cells]
IFN-γ Produced −fold [2]: 10 fold
IFN-γ Produced ng [2]: 0.40 (±0.07) ng

AKLECTQDLIAQGKLIVTNP [CT144 peptide tested with CD4+ T cells]
IFN-γ Produced −fold [1]: 35 fold
IFN-γ Produced ng [1]: 1.4 (±0.3) ng

LEFASCSSL [CT812 peptide tested with CD8+ T cells]
IFN-γ Produced −fold [2]: 1.5 fold
IFN-γ Produced ng [2]: 0.06 (±0.01) ng

FQEKDADTL [CT812 peptide tested with CD8+ T cells]
IFN-γ Produced −fold [2]: 2.0 fold
IFN-γ Produced ng [2]: 0.09 (±0.03) ng

GQSVNELVY [CT812 peptide tested with CD8+ T cells]
IFN-γ Produced −fold [2]: 0.8 fold
IFN-γ Produced ng [2]: 0.03 (±0.02) ng

NVTQDLTSSTAKLECTQDLI [CT144 peptide tested with CD4+ T cells]
IFN-γ Produced −fold [1]: 35 fold
IFN-γ Produced ng [1]: 1.4 (±0.3) ng

QSVNELVYV [CT812 peptide tested with CD8+ T cells]
IFN-γ Produced −fold [2]: 0.3 fold
IFN-γ Produced ng [2]: 0.01 (±0.01) ng

FTSSNLDSP [CT812 peptide tested with CD8+ T cells]
IFN-γ Produced −fold [2]: 1.0 fold
IFN-γ Produced ng [2]: 0.04 (±0.01) ng

YQILNQSNL (listed as Chlamydia trachomatis) [amino acids 109-117 of the CT242 polypeptide]
IFN-γ Produced −fold [2]: >5,750 fold
IFN-γ Produced ng [2]: >230 ng

SQAEGQYRL [CT812 peptide tested with CD8+ T cells]
IFN-γ Produced −fold [2]: 0.8 fold
IFN-γ Produced ng [2]: 0.03 (±0.3) ng

LNQSNLKRM (listed as Chlamydia trachomatis) [amino acids 112-120 of the CT242 polypeptide]
IFN-γ Produced −fold [2]: 160 fold
IFN-γ Produced ng [2]: 6.5 (±2.4) ng

AALYSTEDL [CT812 peptide tested with CD8+ T cells]
IFN-γ Produced −fold [2]: 0.5 fold
IFN-γ Produced ng [2]: 0.02 (±0.02) ng

FSVTNPVVF (listed as Chlamydia trachomatis) [amino acids 103-111 of the CT812 polypeptide]
IFN-γ Produced −fold [2]: 65 fold
IFN-γ Produced ng [2]: 2.6 (±0.3) ng
